Test results taken from patent US9669199B2, “Biosynchronous transdermal drug delivery for longevity, anti-aging, fatigue management, obesity, weight loss, weight management, delivery of nutraceuticals, and the treatment of hyperglycemia, alzheimer's disease, sleep disorders, parkinson's disease, aids, epilepsy, attention deficit disorder, …” (Chrono Therapeutics Inc., priority 2004, dated 2017).
Read-outs that look alike come from different tables or passages of the source.

Experiments:
[1] = test system: metastatic renal cell carcinoma; conditions: continuous infusion, 70% of the daily dose between 15:00 h and 21:00 h; cited from earlier work
arthritis = conditions: night versus 8:00 am; cited from earlier work
[2] = in vivo; cited from earlier work
[3] = low, medium and high concentrations, 16 hours, 12 human subjects
Protocol: The device, described herein, was tested on 12 healthy male volunteers for an open, three-periods, single center, dose-escalation study using nicotine as the model compound.

[4] = human cadaver skin dermatomed to 0.5 mm, 10 cm^2, 100 mg/ml in ethanol/water 1/1, 200 ul doses, EVA membrane
Protocol: The area of skin permeation was 10 cm^2. […] Each time, 200 µl of formulation was dispensed on a 10 cm^2 surface area of interface of diffusion, separated from the skin by the EVA membrane. […] Additionally, the dose quantity was strictly controlled and monitored. Drug flux samples were obtained using a flow-through Franz cell permeation system with samples collected every 15 minutes. Hourly time point samples were analyzed and recorded. Samples were analyzed by UV/Vis spectrophotometry.

[5] = test system: children aged 7 to 15 with ADHD; conditions: cited from earlier work; for ADHD symptoms and global ratings: parent and clinician ratings, 9 weeks
[6] = test system: sleep-deprived F-117 pilots; conditions: 300 mg in three divided 100-mg doses; cited from earlier work
helicopter pilots = conditions: 600 mg in three doses, 8 hours of sleep in an 88 hour period; cited from earlier work
[7] = oral dosing with 5 mg or transdermally with 39 mg; cited from earlier work
[8] = in vivo; cited from earlier work; remark: listed apart in the source
smoking = conditions: in vivo; cited from earlier work
rhesus monkeys = conditions: sleep deprivation; cited from earlier work
[9] = test system: humans subjected to simulated night shift work; conditions: cited from earlier work
[10] = evening versus morning; cited from earlier work

O=c1[nH]c(=O)n([C@H]2C[C@H](O)[C@@H](CO)O2)cc1F [fluorodeoxyuridine]
objective response [1]: 29%

COc1ccc2c(c1)c(CC(=O)O)c(C)n2C(=O)c1ccc(Cl)cc1 [indomethacin]
efficacy and patient compliance by time of dosing (arthritis): better efficacy and patient compliance when dosed at night than when dosed at 8:00 am

O=C(C[S+]([O-])C(c1ccccc1)c1ccccc1)NO (stereo not shown) [Adrafinil]
half-life [2]: about 60 minutes
time to peak concentration [2]: about 60 minutes

CN1CCCC1c1cccnc1 (stereo not shown) [nicotine]
blood plasma concentration profile [3]: clear and distinct peaks and troughs of therapeutically effective and well-targeted blood plasma concentration levels
maximum transdermal flux value [4]: 160 ng/cm^2/hr

COC(=O)C(c1ccccc1)C1CCCCN1 (stereo not shown) [methylphenidate]
tolerability ([5]; atomoxetine twice daily, methylphenidate 2 or 3 times daily): well tolerated
ADHD symptoms and global ratings [5]: associated with reductions in ADHD symptoms and improved global ratings

NC(=O)C[S+]([O-])C(c1ccccc1)c1ccccc1 (stereo not shown) [modafinil]
flight control accuracy sustained to within percent of baseline levels [6]: about 27%
alertness of pilots (helicopter pilots): can be used to keep pilots alert

CCN(CC)CC#CCOC(=O)C(O)(c1ccccc1)C1CCCCC1 (stereo not shown) [oxybutynin]
mean maximum blood plasma concentration [7]: 3 ng/mL

CNCC[C@@H](Oc1ccccc1C)c1ccccc1 [atomoxetine]
half-life average [8]: 3.12 h
time of peak plasma concentration after dosing [8]: 1 to 2 h
tolerability ([5]; in vivo): well tolerated
ADHD symptoms and global ratings [5]: associated with reductions in ADHD symptoms and improved global ratings

c1cnc2cc3c(cc2n1)[C@@H]1CNC[C@H]3C1 [varenicline]
chances of quitting smoking (smoking): can more than double the chances of quitting smoking

O=C(c1ccc2nonc2c1)N1CCOCC1 [CX717]
performance after receiving the drug (rhesus monkeys): performed faster and better
cognitive performance [9]: did not improve cognitive performance

CCCC(CCC)C(=O)O [valproate]
absorption by time of day [10]: absorb it more slowly and less efficiently when they take it in the evening than in the morning
